Assay results from patent US10744109B2, “Sustained release suspension containing dezocine analogue ester and preparation method therefor” (SHANDONG DANHONG PHARMACEUTICAL CO., LTD., priority 2017, dated 2020).
Like-named read-outs stand apart in the source and are kept apart here.

Experiments:
[1] = Study of pharmacokinetics, intramuscular injection in male rats; type: in vivo; details: whole blood, im, rat; for AUC: read-out: AUC0=last
Description: Study of Pharmacokinetics
3 Male rats for each group, the compound as shown in formula (I) was administered by intramuscular injection. Whole blood samples were collected at 0.25, 0.50, 1.0, 2.0, 4.0, 8.0, 12.0, 24.0 and 48.0 hour(s) after administration of the aqueous suspension group. Whole blood samples were collected at 0.25, 0.50, 2.0, 4.0, 8.0, 10.0, 24.0, 48.0, 72.0, 96.0, 120.0 and 144.0 hour(s) after administration of the oil suspension group. After precipitating the protein with acetonitrile/methanol, the supernatant was collected for sampling and the blood concentration of the compound was determined by LC-MS/MS. The non-compartment model linear logarithmic trapezoid method was used to calculate the pharmacokinetic parameters of the compounds as shown in formula (I) and formula (II) respectively by using WinNonlin™ Version 6.3 (Pharsight, Mountain View, Calif.) pharmacokinetic software.

[2] = cited from earlier work
[3] = releases formula (II) after hydrolysis in vivo; cited from earlier work
[4] = in vivo, prepared as an aqueous solution; cited from earlier work
[5] = intramuscular injection of oil suspension of formula (I), 51.4 μM/Kg
[6] = intramuscular injection of oil suspension of formula (I), 51.4 μM/Kg, 44.50 mg/mL, 0.25% Tween 80, medium chain triglyceride
[7] = intramuscular injection of aqueous suspension of formula (I), 17.5 μM/Kg

| SMILES | Tmax [1, 5] | Cmax [1, 6] | AUC [1, 5] | solubility in oil solution ([2]; oil solution) | solubility in water ([2]; water) | stability in plasma [3] | clearance rate [4] | half-life [4] | AUC(0-inf) [1, 7] | Tmax [1, 7] | half-life [1, 7] | Cmax ([1]; intramuscular injection of aqueous suspension of formula (I), 17.5 μM/Kg, 25 μm/mL, 1% Tween 20, 7.5% PEG 1000, 0.75% citric acid monohydrate) | AUC [1, 7] | AUC(0-inf) [1, 5] | half-life [1, 5] |
| --- | --- | --- | --- | --- | --- | --- | --- | --- | --- | --- | --- | --- | --- | --- | --- |
| C[C@@]12CCCCC[C@@H](Cc3c(F)cc(OC(=O)CCCCCCCCC(=O)Oc4cc(F)c5c(c4)[C@@]4(C)CCCCC[C@@H](C5)[C@@H]4N)cc31)[C@@H]2N [formula (I)] | 0.25 h | 5.05 nM | 0.11 µM·h | hardly soluble or insoluble | slightly soluble | unstable | too fast | short | – | – | – | – | – | – | – |
| C[C@@]12CCCCC[C@@H](Cc3c(F)cc(O)cc31)[C@@H]2N [formula (II)] | 2 h | 378 nM | 10.1 µM·h | – | – | – | – | – | 5.81 µM·h | 4 h | 7.52 h | 438 nM | 5.71 µM·h | 10.4 µM·h | 24.1 h |
